What was measured:
[1] = test system: STAT5; assay: Signaling pathways of FLT3 in cells: STAT5 phosphorylation; type: cell-based, human; details: MV-4-11, MOLM-13 and MOLM-14 cells, 4 hours; Compound 1 0.001-0.3 μM, AC220 0.1 μM
[2] = test system: MOLM-13, MOLM-14 and MV-4-11 cell lines; assay: Cell cycle distribution by flow cytometry (PI); type: cell-based, human; details: MOLM-13, MOLM-14 and MV-4-11, 12 or 24 hours; Compound 1 0.01-0.1 μM, AC220 0.1 μM
[3] = test system: MOLM-14 cells; assay: Nude mouse model harboring subcutaneous tumor; type: in vivo; details: 28 days
Experimental: The first day of administration was recorded as day 0, followed by continuous administration for 28 days (FIG. 4).

[4] = test system: PARP and Caspase 3; assay: Cell apoptosis, Western Blot of PARP and Caspase 3 cleavage
From the text: Western Blot was used to detect the effects of different concentrations of compounds on protein cleavage of the DNA repairase poly(ADP-ribose) polymerase (PARP) and Caspase (cysteinyl aspartate-specific proteinase) 3, wherein glyceraldehyde-3-phosphate dehydrogenase (GAPDH) was used as the internal standard protein.

[5] = test system: MOLM-14; assay: Cancer cell proliferation, Cell Titer-Glo, GI50; type: cell-based; details: Homo sapiens; MOLM-14, 72 hours
Experimental: (§1) Compounds of the invention were evaluated for their inhibitory effects on proliferation of cancer cells as well as the selectivity thereof by testing their effects on growth of cancer cells (Table 2).
(§2) In this example the following cells were selected: human acute myeloid leukemia cells MV-4-11 (expressing FLT3[ITD] mutant gene), human acute myeloid leukemia cells MOLM-13 (expressing FLT3[ITD] mutant gene and wild-type FLT3 gene), human acute myeloid leukemia cells MOLM-14 (expressing FLT3[ITD] mutant gene and wild-type FLT3 gene), human acute myeloid leukemia cells OCI-AML3 (expressing FLT3[A680V] mutant gene), human acute myeloid leukemia cells U937 (expressing wild-type FLT3 gene), and mouse pro-B cells BaF3, and the above cells were purchased from ATCC.
(§3) Then the number of viable cells was determined by quantification of ATP in living cells using Cell Titer-Glo® (Promega, the USA) Luminescent Cell Viability Assay kit and thereby GI50 was calculated.

[6] = test system: MV-4-11; assay: Cancer cell proliferation, Cell Titer-Glo, GI50; type: cell-based; details: Homo sapiens, MV4-11; MV-4-11, 72 hours
Experimental: as §1, §2, §3

[7] = test system: U937; assay: Cancer cell proliferation, Cell Titer-Glo, GI50; type: cell-based; details: Homo sapiens, U-937; U937, 72 hours
Experimental: as §1, §2, §3

[8] = test system: BaF3-FLT3 [ITD + D835Y]; assay: Cell proliferation, Cell Titer-Glo, GI50; type: cell-based; details: Mus musculus, Ba/F3 FLT3-ITD, 72 hours
Experimental: as §1
(§4) Mouse BaF3-FLT3[ITD] (stably expressing FLT3[ITD] mutant activated kinase), mouse tel-BaF3-FLT3-D835Y (stably expressing FLT3[D835Y]mutant activated kinase), mouse tel-BaF3-BMX (stably expressing BMX kinase), mouse tel-FLT3-BaF3 (stably expressing FLT3 kinase), mouse BaF3-FLT3-ITD-D835Y (stably expressing FLT3[ITD+D835Y]mutant activated kinase), mouse BaF3-FLT3-ITD-F691L (stably expressing FLT3[ITD+F691L]mutant activated kinase), mouse tel-cKIT-BaF3 (stably expressing cKIT kinase), mouse BaF3-tel-cKit-N882K (stably expressing cKIT-N882K mutant activated kinase), mouse BaF3-tel-cKit-D816V (stably expressing cKIT-D816V mutant activated kinase), mouse BaF3-tel-cKit-T670I (stably expressing cKIT-T670I mutant activated kinase), mouse TPR-MET-BaF3 (stably expressing MET kinase), mouse tel-BaF3-EGFR (stably expressing EGFR kinase), mouse BaF3-FL-EGFR-L858R (stably expressing EGFR[L858R]mutant activated kinase), mouse tel-BaF3-BLK (stably expressing BLK kinase), mouse tel-JAK1-BaF3 (stably expressing JAK1 kinase) and the like were also used (see Table 2 for details). The above cell lines were all constructed by our laboratory according to the following method: the kinase region sequences of human FLT3/ITD, FLT3 D835Y, BMX, FLT3, FLT3[ITD+D835Y], FLT3[ITD+F691L], cKIT, cKIT [N882K], cKIT [D816V], cKIT [T670I], MET, EGFR, EGFR [L858R], BLK, JAK1, FLT3[K663Q], FLT3[D835V], FLT3[D835H], PDGFRa, PEGFRb, VEGFR2, JAK2, JAK3, ABL were amplified by PCR, and inserted into MSCV-Puro vectors with N-terminal TEL or TPR fragments (purchased from Clontech), respectively. The vectors were stably transfected into mouse BaF3 cells (purchased from ATCC) by means of retrovirus, and the growth factor IL-3 were removed, eventually obtaining cell lines that are transferred protein (FLT3/ITD, FLT3 D835Y, BMX, FLT3, FLT3[ITD D835Y], FLT3[ITD+F691L], cKIT, cKIT [N882K], cKIT [D816V], cKIT [T670I], MET, EGFR, EGFR [L858R], BLK, JAK1, FLT3[K663Q], FLT3[D835V], FLT3[D835H], PDGFRa, PEGFRb, VEGFR2, JAK2, JAK3, ABL)-dependent.
as §3

[9] = test system: BaF3-FLT3 [ITD + F691L]; assay: Cell proliferation, Cell Titer-Glo, GI50; type: cell-based; details: Mus musculus, Ba/F3 FLT3-ITD, 72 hours
Experimental: as §1, §4, §3

[10] = test system: BaF3-FLT3 [ITD]; assay: Cell proliferation, Cell Titer-Glo, GI50; type: cell-based; details: Mus musculus, Ba/F3 FLT3-ITD, 72 hours
Experimental: as §1, §4, §3

[11] = test system: BaF3-TEL-BMX; assay: Cell proliferation, Cell Titer-Glo, GI50; type: cell-based; details: Mus musculus, 72 hours
Experimental: as §1, §4, §3

[12] = test system: BaF3-TEL-FLT3 [D835H]; assay: Cell proliferation, Cell Titer-Glo, GI50; type: cell-based; details: Mus musculus, 72 hours
Experimental: as §1, §4, §3

[13] = test system: BaF3-TEL-FLT3 [D835V]; assay: Cell proliferation, Cell Titer-Glo, GI50; type: cell-based; details: Mus musculus, 72 hours
Experimental: as §1, §4, §3

[14] = test system: BaF3-TEL-FLT3 [D835Y]; assay: Cell proliferation, Cell Titer-Glo, GI50; type: cell-based; details: Mus musculus, 72 hours
Experimental: as §1, §4, §3

[15] = test system: BaF3-TEL-FLT3 [K663Q]; assay: Cell proliferation, Cell Titer-Glo, GI50; type: cell-based; details: Mus musculus, 72 hours
Experimental: as §1, §4, §3

[16] = test system: BaF3-TEL-FLT3; assay: Cell proliferation, Cell Titer-Glo, GI50; type: cell-based; details: Mus musculus; BaF3-TEL-FLT3, 72 hours
Experimental: as §1, §4, §3

[17] = test system: BaF3-TEL-PDGFRa; assay: Cell proliferation, Cell Titer-Glo, GI50; type: cell-based; details: Mus musculus, 72 hours
Experimental: as §1, §4, §3

[18] = test system: BaF3-TEL-PEGFRb; assay: Cell proliferation, Cell Titer-Glo, GI50; type: cell-based; details: Mus musculus, 72 hours
Experimental: as §1, §4, §3

[19] = test system: BaF3-TEL-cKIT; assay: Cell proliferation, Cell Titer-Glo, GI50; type: cell-based; details: Mus musculus, 72 hours
Experimental: as §1, §4, §3

[20] = test system: BaF3-TEL-cKit [D816V]; assay: Cell proliferation, Cell Titer-Glo, GI50; type: cell-based; details: Mus musculus, 72 hours
Experimental: as §1, §4, §3

[21] = test system: BaF3-TEL-cKit [N882K]; assay: Cell proliferation, Cell Titer-Glo, GI50; type: cell-based; details: Mus musculus, 72 hours
Experimental: as §1, §4, §3

[22] = test system: BaF3-TEL-cKit [T670I]; assay: Cell proliferation, Cell Titer-Glo, GI50; type: cell-based; details: Mus musculus, 72 hours
Experimental: as §1, §4, §3

[23] = test system: BaF3; assay: Cell proliferation, Cell Titer-Glo, GI50; type: cell-based; details: Mus musculus; BaF3, 72 hours
Experimental: as §1, §2, §3

Structure (SMILES)	GI50 [5]	GI50 [6]	GI50 [7]	GI50 [8]	GI50 [9]	GI50 [10]	GI50 [11]	GI50 [12]	GI50 [13]	GI50 [14]	GI50 [15]	GI50 [16]	GI50 [17]	GI50 [18]	GI50 [19]	GI50 [20]	GI50 [21]	GI50 [22]	GI50 [23]	other results
CC(C)(C)c1cc(NC(=O)Nc2ccc(-n3nc(-c4ccc(OCCN5CCOCC5)cc4)c4c(N)ncnc43)cc2)no1 [Compound 1, 1-(4-(4-amino-3-(4-(2-morpholinoethoxy)phenyl)-1H-pyrazolo[3,4-d]pyrimidin-1-yl)phenyl)-3-(5-(tert-butyl)isoxazol-3-yl)urea]	–	–	–	–	–	–	–	–	–	–	–	–	–	–	–	–	–	–	–	phosphorylation of STAT5 [1]: significant inhibition; cell cycle distribution [2]: arrested the cell cycle at phase G0-G1; mice body weight ([3]; 3.75 mg/kg daily oral gavage): no significant decrease; mice body weight ([3]; 15 mg/kg daily oral gavage): did not decrease; mice body weight ([3]; […] daily oral gavage): did not decrease; cleavage of Caspase 3 ([4]; MOLM-13, 0.003 μM, 12 hours): significant cleavage; cleavage of the DNA repairase poly(ADP-ribose) polymerase (PARP) ([4]; MOLM-13, 0.003 μM, 12 hours): significant cleavage; cleavage of the DNA repairase poly(ADP-ribose) polymerase (PARP) ([4]; MV-4-11, 24 hours): even more significant
CC(C)(C)c1cc(NC(=O)Nc2ccc(-n3nc(-c4ccc(OCCN5CCN(S(C)(=O)=O)CC5)cc4)c4c(N)ncnc43)cc2)no1 [Compound 22, 1-(4-(4-amino-3-(4-(2-(4-(methanesulfonyl)piperazin-1-yl)ethoxy)phenyl)-1H-pyrazolo[3,4-d]pyrimidin-1-yl)phenyl)-3-(5-(tert-butyl)isoxazol-3-yl)urea]	< 0.0003 µM	< 0.0003 µM	8.5 µM	0.1 µM	0.039 µM	< 0.0003 µM	2 µM	0.004 µM	0.017 µM	0.02 µM	3.8 µM	0.001 µM	0.002 µM	0.012 µM	0.04 µM	2.2 µM	0.015 µM	0.013 µM	6.5 µM	–
CC(=O)N1CCN(Cc2ccc(-c3nn(-c4ccc(NC(=O)Nc5cc(C(C)(C)C)on5)cc4)c4ncnc(N)c34)cc2)CC1 [Compound 21, 1-(4-(3-(4-((4-acetylpiperazin-1-yl)methyl)phenyl)-4amino-1H-pyrazolo[3,4-d]pyrimidin-1-yl)phenyl)-3-(5-(tert-butyl)isoxazol-3-yl)urea]	< 0.0003 µM	< 0.0003 µM	2.3 µM	0.059 µM	0.12 µM	< 0.0003 µM	5.3 µM	< 0.0003 µM	0.004 µM	0.009 µM	3.6 µM	0.001 µM	0.002 µM	0.01 µM	0.031 µM	1.8 µM	0.01 µM	0.004 µM	~10 µM	–

Reference: US10975082B2, “Inhibitor of FLT3 kinase and use thereof” (PRECEDO PHARMACEUTICALS CO., LTD, priority 2016, dated 2021)
